{"source": "patent US20080317857A1", "about": "“V-Atpase Inhibitors of Use in the Treatment of Septic Shock” (Brane Discovery S.r.l., priority 2005, published 2008)", "format_in_all_cases": "cell-based", "key": {"PMNs [1]": {"test_system": "PMNs", "test": "Chemoattractant-induced rapid adhesion of PMNs to fibrinogen (CR3 ligand)", "conditions": "Homo sapiens", "experimental": "(§1) Adhesion was performed on purified integrin ligands and was evaluated as reported in Constantin G. et al., Immunity, 16, 759-769, 2000. Briefly, primary naïve lymphocytes, polymorphonuclear neutrophils (PMNs) or monocytes were isolated form healthy donors. In other experiments, murine autoreactive T cells were obtained from SJL mice immunized with PLP139-151 as described (Piccio L. et al., J. Immunol. 168, 1940-1949, 2002). Cells were resuspended at 4×10^6/ml in PBS, CaCl2, MgCl2 1 mM, 10% FCS, pH 7.2. Adhesion assays were performed on eighteen well glass slides coated overnight at 4° C. with ligands for CR3 (fibrinogen) or LFA-1 (ICAM-1). 20 μl of cell suspension were added to the wells and stimulated at 37° C. with 5 μl of agonists prior to washing, fixation and computer-assisted enumeration of bound cells.\n(§2) Integrin activation was measured as induction of rapid adhesion triggered by the classical chemoattractant N-formyl-L-methionyl-L-leucyl-phenylalanine (fMLP) (100 nM) or by the CC chemokine MIP3β (CCL19, 1 μM). PMNs and monocytes were triggered to adhere to fibrinogen (CR3 ligand); naive human lymphocytes or murine encephalitogenic T cells were triggered to adhere to ICAM-1 (LFA-1 ligand). Triggered adhesion was evaluated after 2 min of stimulation under static conditions. The cells were pretreated at 37° C. for 30-60 min with the indicated concentrations of the test compound. Results are expressed as percentage of inhibition over control (=100%) and are the mean of three experiments in the case of human leukocytes. Results are expressed as mean counts and are the mean counts±S.D of three experiments and are the mean of three experiments in the case of murine encephalitogenic lymphocytes.\n(§3) Integrin activation was measured as induction of rapid adhesion triggered by the “classical” chemoattractant fMLP (100 nM) or by the CC chemokine MIP3β(CCL19, 1 μM). PMNs were triggered to adhere to fibrinogen (CR3 ligand); lymphocytes were triggered to adhere to ICAM-1 (LFA-1 ligand)."}, "Lymphocytes": {"test_system": "Lymphocytes", "test": "Chemokine-induced rapid adhesion of lymphocytes to ICAM-1 (LFA-1 ligand)", "conditions": "Homo sapiens, Lymphocyte", "experimental": "as §1, §2, §3"}, "Monocytes": {"test_system": "Monocytes", "test": "Chemoattractant-induced rapid adhesion of monocytes to fibrinogen", "conditions": "Homo sapiens, Monocyte, read-out: Inhibition of Adhesion (%) Monocytes (fMLP)", "experimental": "as §1, §2"}, "PMNs [2]": {"test_system": "PMNs", "test": "Chemotaxis assay, PMNs (transwell)", "conditions": "Homo sapiens", "experimental": "PMNs and monocytes migration was assessed using 1 or 3-μm pore size transwells (Bio-Coat Becton-Dickinson), while lymphocytes by using 5-μm pore size transwells.\nCells were in RPMI1640, containing 10% heat-inactivated Fetal Calf Serum (FCS) and 20 mM HEPES, pH 7.3, at 2×10^6/ml. 100 μl of cell suspension were added to the top well, and 600 μl of medium, containing chemoaftractants and test compound, were added to the bottom well. Migration was evaluated after 2 h for PMNs and monocytes and after 4 h for lymphocytes. fMLP 10 nM (PMNs and monocytes) and MIP-3β 100 nM (lymphocytes) were utilized as chemoattractants. After fixation with 1.5% glutaraldehyde, migrated cells were counted by fluorescence-activated cell sorting using polystyrene beads (Polyscience) as an internal standard (Campbell J. J. et al. J. Cell. Biol. 134, 255-266, 1996; Laudanna C. et al. J. Biol. Chem. 273, 46, 30306-30315, 1998).\nResults are expressed as percentage of inhibition over control (=100%), and are the mean of three experiments."}}}
{"smiles": "COC(=O)c1[nH]c2cc(OC)c(OC)cc2c1-c1ccc(OC)cc1", "note": "[Example 1]", "values": [{"measurement": "inhibition at 2.5 µM", "setting": "PMNs [1]; [cpd] 2.5 μM, read-out: Inhibition of Adhesion (%) PMNs (fMLP)", "value": 9.4, "unit": "%"}, {"measurement": "inhibition at 5 µM", "setting": "PMNs [1]; [cpd] 5 μM, read-out: Inhibition of Adhesion (%) PMNs (fMLP) (converted)", "value": 56.1, "unit": "%"}, {"measurement": "inhibition at 10 µM", "setting": "PMNs [1]; [cpd] 10 μM, read-out: Inhibition of Adhesion (%) PMNs (fMLP) (converted)", "value": 66.7, "unit": "%"}, {"measurement": "inhibition at 25 µM", "setting": "PMNs [1]; [cpd] 25 μM, read-out: Inhibition of Adhesion (%) PMNs (fMLP) (converted)", "value": 72.9, "unit": "%"}, {"measurement": "inhibition at 50 µM", "setting": "PMNs [1]; [cpd] 50 μM, read-out: Inhibition of Adhesion (%) PMNs (fMLP) (converted)", "value": 79, "unit": "%"}, {"measurement": "inhibition at 100 µM", "setting": "PMNs [1]; [cpd] 100 μM, read-out: Inhibition of Adhesion (%) PMNs (fMLP) (converted)", "value": 94.2, "unit": "%"}, {"measurement": "inhibition at 2.5 µM", "setting": "Lymphocytes; [cpd] 2.5 μM, read-out: Inhibition of Adhesion (%) Lymphocytes (MIP3-β)", "value": 32.4, "unit": "%"}, {"measurement": "inhibition at 5 µM", "setting": "Lymphocytes; [cpd] 5 μM, read-out: Inhibition of Adhesion (%) Lymphocytes (MIP3-β) (converted)", "value": 41.2, "unit": "%"}, {"measurement": "inhibition at 10 µM", "setting": "Lymphocytes; [cpd] 10 μM, read-out: Inhibition of Adhesion (%) Lymphocytes (MIP3-β) (converted)", "value": 42.6, "unit": "%"}, {"measurement": "inhibition at 25 µM", "setting": "Lymphocytes; [cpd] 25 μM, read-out: Inhibition of Adhesion (%) Lymphocytes (MIP3-β) (converted)", "value": 60.8, "unit": "%"}, {"measurement": "inhibition at 50 µM", "setting": "Lymphocytes; [cpd] 50 μM, read-out: Inhibition of Adhesion (%) Lymphocytes (MIP3-β) (converted)", "value": 61.8, "unit": "%"}, {"measurement": "inhibition at 100 µM", "setting": "Lymphocytes; [cpd] 100 μM, read-out: Inhibition of Adhesion (%) Lymphocytes (MIP3-β) (converted)", "value": 98.6, "unit": "%"}, {"measurement": "inhibition at 2.5 µM", "setting": "Monocytes; [cpd] 2.5 μM", "value": "< 5", "unit": "%"}, {"measurement": "inhibition at 5 µM", "setting": "Monocytes; [cpd] 5 μM", "value": "< 5", "unit": "%"}, {"measurement": "inhibition at 10 µM", "setting": "Monocytes; [cpd] 10 μM", "value": "< 5", "unit": "%"}, {"measurement": "inhibition at 25 µM", "setting": "Monocytes; [cpd] 25 μM", "value": "< 5", "unit": "%"}, {"measurement": "inhibition at 50 µM", "setting": "Monocytes; [cpd] 50 μM", "value": "< 5", "unit": "%"}, {"measurement": "inhibition at 100 µM", "setting": "Monocytes; [cpd] 100 μM", "value": "< 5", "unit": "%"}, {"measurement": "inhibition at 2.5 µM", "setting": "PMNs [2]; [cpd] 2.5 μM, read-out: Inhibition of Chemotaxis (%) PMNs (fMLP)", "value": 14.6, "unit": "%"}, {"measurement": "inhibition at 5 µM", "setting": "PMNs [2]; [cpd] 5 μM, read-out: Inhibition of Chemotaxis (%) PMNs (fMLP) (converted)", "value": 28.2, "unit": "%"}, {"measurement": "inhibition at 10 µM", "setting": "PMNs [2]; [cpd] 10 μM, read-out: Inhibition of Chemotaxis (%) PMNs (fMLP) (converted)", "value": 34, "unit": "%"}, {"measurement": "inhibition at 25 µM", "setting": "PMNs [2]; [cpd] 25 μM, read-out: Inhibition of Chemotaxis (%) PMNs (fMLP) (converted)", "value": 40.6, "unit": "%"}, {"measurement": "inhibition at 50 µM", "setting": "PMNs [2]; [cpd] 50 μM, read-out: Inhibition of Chemotaxis (%) PMNs (fMLP)", "value": 46.4, "unit": "%"}, {"measurement": "inhibition at 100 µM", "setting": "PMNs [2]; [cpd] 100 μM, read-out: Inhibition of Chemotaxis (%) PMNs (fMLP) (converted)", "value": 62.6, "unit": "%"}]}
